Laboratory results: paper PMC6884456, “Supreme activity of gramicidin S against resistant, persistent and biofilm cells of staphylococci and enterococci” (Scientific Reports, 2019)
Where no end group is shown, it is not given here.

Experiments:
S. aureus DSM 1104 [1] = type: cell-based, Staphylococcus aureus; conditions: S. aureus DSM 1104; 10 µl from MIC plates spotted on Mueller-Hinton agar, overnight 37 °C, no colonies on two plates
E. faecalis WW6 [2] = type: cell-based, Enterococcus faecalis; conditions: E. faecalis WW6; spotted from MIC plates on Mueller-Hinton agar, overnight, no colonies
S. aureus MRSA4 = type: cell-based, Staphylococcus aureus; conditions: S. aureus MRSA4; spotted from MIC plates on Mueller-Hinton agar, overnight, no colonies
E. faecalis DSM 2570 [3] = type: cell-based, Enterococcus faecalis; conditions: E. faecalis DSM 2570; spotted from MIC plates on Mueller-Hinton agar, overnight, no colonies
E. faecium VRE1 = type: cell-based, Enterococcus faecium; conditions: E. faecium VRE1; spotted from MIC plates on Mueller-Hinton agar, overnight, no colonies
E. faecalis WW4 = type: cell-based, Enterococcus faecalis; conditions: E. faecalis WW4; spotted from MIC plates on Mueller-Hinton agar, overnight, no colonies
E. faecalis TRE4 = type: cell-based, Enterococcus faecalis; conditions: E. faecalis TRE4; spotted from MIC plates on Mueller-Hinton agar, overnight, no colonies
S. aureus MRSA9 = type: cell-based, Staphylococcus aureus; conditions: S. aureus MRSA9; spotted from MIC plates on Mueller-Hinton agar, overnight, no colonies
Danio rerio embryos = assay: Acute toxicity in Danio rerio embryos; type: in vivo; conditions: zebrafish embryos 72 hpf, E3 medium, heart beat
Protocol: Experiments were performed in accordance with the relevant OECD testing guidelines[73] and German animal protection standards. Wild type D. rerio embryos were obtained at the European Zebrafish Resource Center (Karlsruhe). Fertilized eggs (6 hpf) were raised in 4 ml of embryonic medium (E3) at 28 °C until 72 hpf (6-well plate, 20 eggs/well). Embryos were transferred into flat-bottom glass vials (E3, 1 ml, 15–20 embryos/vial). Peptides were added as 20 µl aliquots in 10% dimethyl sulfoxide in serial 2-fold dilutions. Toxicity was expressed as the concentration at which 50% of the embryos were visually observed to die (measured at 1 and 3 hours exposure) by identifying the heart beat.

S. aureus DSM 1104 SCV [4] = type: cell-based, Staphylococcus aureus; conditions: spotted from MIC plates on Mueller-Hinton agar, overnight, no colonies
Protocol: MBC was determined directly after the MIC evaluation.

human erythrocytes = assay: Haemolysis assay; type: cell-based; conditions: 0.25% human erythrocyte suspension, 37 °C, 30 min, A540, relative to 0.1% Triton X-100
Protocol: Haemolytic activity was determined with a serial 2-fold dilution assay. Citrate phosphate dextrose-stabilized human erythrocyte suspensions were obtained from Karlsruhe Municipal Hospital. […] The mixture was pelleted (13 000 rpm, 10 min, 4 °C), and the absorbance of the supernatant was recorded at 540 nm vs. reaction buffer. The extent of haemolysis was related to the action of 0.1% Triton X-100 (100%).

S. aureus MRSA8 SCV [5] = conditions: value in parentheses
Protocol: (§1) This parameter quantifies the ability of the peptides to prevent biofilm outgrowth.
(§2) After co-incubation with peptides at 37 °C and 5% CO2 without agitation for 24 hours, the planktonic cells were washed, and Crystal violet staining was applied.

S. aureus DSM 1104 [6] = conditions: S. aureus DSM 1104; value in parentheses
Protocol: as §1, §2

E. faecalis DSM 2570 [7] = conditions: E. faecalis DSM 2570; value in parentheses
Protocol: as §1, §2

E. faecalis TRE2 [8] = conditions: E. faecalis TRE2; value in parentheses
Protocol: as §1, §2

E. faecalis WW6 [9] = conditions: E. faecalis WW6; Todd-Hewitt broth, 5 × 10^7 CFU/ml, 24 h, 37 °C, Crystal violet
Protocol: as §1, §2

S. aureus MRSA9 SCV = conditions: spotted from MIC plates on Mueller-Hinton agar, overnight, no colonies
Protocol: (§3) MBC was determined directly after the MIC evaluation. The 10 µl samples of all 8 dilution rows in the microtiter plates were spotted on square Mueller-Hinton agar plates and incubated overnight at 37 °C and 5% CO2. The MBC was determined as the concentration at which no bacterial colonies were obtained on the two parallel spotted plates.

S. aureus MRSA8 SCV [10] = conditions: spotted from MIC plates on Mueller-Hinton agar, overnight, no colonies
Protocol: as §3

S. aureus MRSA538 SCV = conditions: spotted from MIC plates on Mueller-Hinton agar, overnight, no colonies
Protocol: as §3

[11] = target: human serum albumin (HSA) (Homo sapiens, UniProt P02768); assay: HSA binding, biomimetic chromatography; conditions: Chiralpak-HSA column
Protocol: (§4) HPLC was performed on an Agilent 1100 system with an ultraviolet diode array detector. […] Binding measurements were performed using Regis Technologies IAM.PC.DD2 (100 × 4.6 mm), HiChrom Chiralpak-HSA (50 × 3 mm) and HiChrom Chiralpak-AGP (50 × 3 mm) columns. […] Retention times were converted to log k and % binding, using calibration routines described in[72].

S. aureus MRSA3 = type: cell-based, Staphylococcus aureus; conditions: S. aureus MRSA3; spotted from MIC plates on Mueller-Hinton agar, overnight, no colonies
E. faecium VRE2 = type: cell-based, Enterococcus faecium; conditions: E. faecium VRE2; spotted from MIC plates on Mueller-Hinton agar, overnight, no colonies
E. faecalis TRE2 [12] = type: cell-based, Enterococcus faecalis; conditions: E. faecalis TRE2; spotted from MIC plates on Mueller-Hinton agar, overnight, no colonies
E. faecalis TRE1 = type: cell-based, Enterococcus faecalis; conditions: E. faecalis TRE1; spotted from MIC plates on Mueller-Hinton agar, overnight, no colonies
[13] = Chromatographic hydrophobicity index (CHI), C18
Protocol: as §4

S. aureus DSM 1104 SCV [14] = type: cell-based, Staphylococcus aureus; conditions: value in parentheses
Protocol: as §1, §2

[15] = test system: α1-acid glycoprotein (AGP); assay: AGP binding, biomimetic chromatography; conditions: Chiralpak-AGP column
Protocol: as §4

[16] = 50 mM ammonium acetate pH 7.4, 0–35% 2-propanol gradient, calibrated retention times, UV
[17] = pH 7.4, 0–35% 2-propanol gradient, value in parentheses

human serum albumin (HSA), sequence (P02768 25-609): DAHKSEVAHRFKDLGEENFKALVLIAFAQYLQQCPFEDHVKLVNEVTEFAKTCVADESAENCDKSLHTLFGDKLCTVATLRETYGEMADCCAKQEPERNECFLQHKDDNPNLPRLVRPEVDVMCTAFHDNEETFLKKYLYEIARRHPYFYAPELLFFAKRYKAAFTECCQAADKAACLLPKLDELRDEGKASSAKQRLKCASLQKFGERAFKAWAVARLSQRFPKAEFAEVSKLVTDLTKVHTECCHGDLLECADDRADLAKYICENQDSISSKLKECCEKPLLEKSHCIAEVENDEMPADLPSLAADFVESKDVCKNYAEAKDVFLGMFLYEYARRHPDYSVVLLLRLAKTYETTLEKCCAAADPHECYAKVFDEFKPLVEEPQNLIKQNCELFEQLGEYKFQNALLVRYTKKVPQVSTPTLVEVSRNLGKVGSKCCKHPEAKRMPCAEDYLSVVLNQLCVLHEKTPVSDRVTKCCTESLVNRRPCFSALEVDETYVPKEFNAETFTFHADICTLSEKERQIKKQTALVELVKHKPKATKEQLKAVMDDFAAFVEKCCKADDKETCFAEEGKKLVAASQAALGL

Substance: VRLIVAVRIWRR-NH2 [IDR, IDR-1018]
- MBC (S. aureus DSM 1104 [1]): 128 (83) µg/ml
- MBC (E. faecalis WW6 [2]): 64 (42) µg/ml
- MBC (S. aureus MRSA4): > 256 µg/mL
- MBC (E. faecalis DSM 2570 [3]): 64 (42) µg/ml
- MBC (E. faecium VRE1): 32 (21) µg/ml
- MBC (E. faecalis WW4): 64 (42) µg/ml
- MBC (E. faecalis TRE4): 16 (10) µg/ml
- MBC (S. aureus MRSA9): 128 (83) µg/ml
- 1h LD50 (Danio rerio embryos; 1 hour exposure): 15 µg/mL
- 3h LD50 (Danio rerio embryos; 3 hours exposure): 11 µg/mL
- MBC (S. aureus DSM 1104 SCV [4]): 128 (83) µg/ml
- Haemolysis at 5 μM (human erythrocytes; 5 μM peptide): 18%
- Haemolysis at 10 μM (human erythrocytes; 10 μM peptide): 28%
- MBIC90 (S. aureus MRSA8 SCV [5]): 42 µM
- MBIC90 (S. aureus DSM 1104 [6]): 42 µM
- MBIC90 (E. faecalis DSM 2570 [7]): 167 µM
- MBIC90 (E. faecalis TRE2 [8]): 167 µM
- MBIC90 (E. faecalis WW6 [9]): > 256 µg/mL
- MBC (S. aureus MRSA9 SCV): 128 (83) µg/ml
- MBC (S. aureus MRSA8 SCV [10]): 128 (83) µg/ml
- MBC (S. aureus MRSA538 SCV): 128 (83) µg/ml
- Bound HSA [11, 16]: 97.98%
- log k HSA [11, 17]: 1.51
- MBC (S. aureus MRSA3): 128 (83) µg/ml
- MBC (E. faecium VRE2): 32 (21) µg/ml
- MBC (E. faecalis TRE2 [12]): 128 (83) µg/ml
- MBC (E. faecalis TRE1): 64 (42) µg/ml
- chromatographic logD ([13]; pH 2.6): -0.53
- chromatographic logD ([13]; pH 7.4): 0.88
- chromatographic logD ([13]; pH 10.5): 4.43
- MBIC90 (S. aureus DSM 1104 SCV [14]): 83 µM
- Bound AGP [15, 16]: 93.37%
- log k AGP [15, 17]: 1.09
